Data set [1] has as its target Epidermal growth factor receptor (Homo sapiens) (UniProt P00533). The data set is described as follows: Inhibition of EGFR (unknown origin) at 1 uM using poly (Glu,Tyr) 4:1 as substrate measured after 1 hr in presence of ATP by spectrophotometric analysis relative to control.
In another data set the test system is HUVEC. As to the kind of experiment: Antiproliferative activity against human HUVEC cells expressing VEGFR2 assessed as cell growth inhibition measured after 48 hrs by MTT assay. The data set is classed as functional, cell-based. (Formazan colour is commonly taken as a measure of viable cells.)
Data set [2] concerns HepG2. As to the kind of experiment: Antiproliferative activity against human HepG2 cells expressing VEGFR2 assessed as cell growth inhibition measured after 48 hrs by MTT assay. The class given is functional, cell-based. The note with it: HepG2, 48 h.
In the next data set the test system is A549. The data set is described as follows: Antiproliferative activity against human A549 cells expressing EGFR assessed as cell growth inhibition measured after 48 hrs by MTT assay. The class given is functional, cell-based. The note with it: A549, 48 h.
A further data set deals with MDA-MB-231. The data set is described as follows: Antiproliferative activity against human MDA-MB-231 cells expressing EGFR assessed as cell growth inhibition measured after 48 hrs by MTT assay. The data set is classed as functional, cell-based. The settings on record: MDA-MB-231, 48 h.
The next data set concerns L02. As to the kind of experiment: Cytotoxicity against human LO2 cells. The class given is cell-based.
Data set [3] addresses T1, Vascular endothelial growth factor receptor 2 (Homo sapiens, UniProt P35968). As to the kind of experiment: Inhibition of VEGFR2 (unknown origin) using poly (Glu,Tyr) 4:1 as substrate measured after 1 hr in presence of ATP by spectrophotometric analysis.
In a further data set the test system is Chorioallantoic membrane. As to the kind of experiment: Antiangiogenic activity in chicken fertilized egg chorioallantoic membrane assessed as decrease in blood vessel growth at 10 nM measured after 48 hrs by microscopic analysis. The data set is classed as functional, tissue-based. The settings on record: Gallus gallus.
The subject of data set [4] is HepG2. As to the kind of experiment: Cell cycle arrest in human HepG2 cells assessed as accumulation at G1 phase at 1 nM measured after 6 hrs by propidium iodide staining based flow cytometry analysis (reference value: 47.9 %). The class given is functional.
Data set [5] concerns HepG2. The data set is described as follows: Cell cycle arrest in human HepG2 cells assessed as accumulation at G2 phase at 1 nM measured after 6 hrs by propidium iodide staining based flow cytometry analysis (reference value: 52.1 %). The class given is functional. Background: Flow cytometry measures light scatter and fluorescence of single cells or particles in a stream.
Data set [6] relates to HepG2. The data set is described as follows: Cell cycle arrest in human HepG2 cells assessed as accumulation at S phase at 1 nM measured after 6 hrs by propidium iodide staining based flow cytometry analysis (reference value: 0 %). The data set is classed as functional.
The subject of data set [7] is HepG2. As to the kind of experiment: Cell cycle arrest in human HepG2 cells assessed as accumulation at G1 phase at 10 nM measured after 6 hrs by propidium iodide staining based flow cytometry analysis (reference value: 47.9 %). The data set is classed as functional.
Data set [8] deals with HepG2. The data set is described as follows: Cell cycle arrest in human HepG2 cells assessed as accumulation at G2 phase at 10 nM measured after 6 hrs by propidium iodide staining based flow cytometry analysis (reference value: 52.1 %). The data set is classed as functional.
Data set [9] relates to HepG2. The data set is described as follows: Cell cycle arrest in human HepG2 cells assessed as accumulation at S phase at 10 nM measured after 6 hrs by propidium iodide staining based flow cytometry analysis (reference value: 0 %). The class given is functional.
Data set [10] deals with HepG2. As to the kind of experiment: Induction of apoptosis in human HepG2 cells assessed as apoptotic cells at 1 nM measured after 6 to 24 hrs by dUTP-FITC/propidium iodide staining based flow cytometry analysis (reference value: 2.6 %). The data set is classed as functional.
The subject of data set [11] is HepG2. The data set is described as follows: Induction of apoptosis in human HepG2 cells assessed as apoptotic cells at 10 nM measured after 6 to 24 hrs by dUTP-FITC/propidium iodide staining based flow cytometry analysis (reference value: 2.6 %). The data set is classed as functional.
Data set [12] can be described thus: Solubility of compound. The data set is classed as physicochemical.
In data set [13] the test system is HepG2. The data set is described as follows: Cell cycle arrest in human HepG2 cells assessed as accumulation at G0/G1 phase measured after 6 hrs by propidium iodide staining based flow cytometry analysis. The data set is classed as functional.
Data set [14] deals with T1, Vascular endothelial growth factor receptor 2. The note with it: at 1 µM.
Description: Inhibition of VEGFR2 (unknown origin) at 1 uM using poly (Glu,Tyr) 4:1 as substrate measured after 1 hr in presence of ATP by spectrophotometric analysis relative to control
In data set [15] the test system is HepG2. The data set is described as follows: Induction of apoptosis in human HepG2 cells assessed as necrotic cells at 1 nM measured after 24 hrs by dUTP-FITC/propidium iodide staining based flow cytometry analysis (reference value: 0.2 %).
The test system of data set [16] is HepG2. The data set is described as follows: Induction of apoptosis in human HepG2 cells assessed as necrotic cells at 10 nM measured after 24 hrs by dUTP-FITC/propidium iodide staining based flow cytometry analysis (reference value: 0.2 %).

Activity calls are given as the source filed them. No cut-off for these calls is given here.

T1 sequence (P35968 whole entry): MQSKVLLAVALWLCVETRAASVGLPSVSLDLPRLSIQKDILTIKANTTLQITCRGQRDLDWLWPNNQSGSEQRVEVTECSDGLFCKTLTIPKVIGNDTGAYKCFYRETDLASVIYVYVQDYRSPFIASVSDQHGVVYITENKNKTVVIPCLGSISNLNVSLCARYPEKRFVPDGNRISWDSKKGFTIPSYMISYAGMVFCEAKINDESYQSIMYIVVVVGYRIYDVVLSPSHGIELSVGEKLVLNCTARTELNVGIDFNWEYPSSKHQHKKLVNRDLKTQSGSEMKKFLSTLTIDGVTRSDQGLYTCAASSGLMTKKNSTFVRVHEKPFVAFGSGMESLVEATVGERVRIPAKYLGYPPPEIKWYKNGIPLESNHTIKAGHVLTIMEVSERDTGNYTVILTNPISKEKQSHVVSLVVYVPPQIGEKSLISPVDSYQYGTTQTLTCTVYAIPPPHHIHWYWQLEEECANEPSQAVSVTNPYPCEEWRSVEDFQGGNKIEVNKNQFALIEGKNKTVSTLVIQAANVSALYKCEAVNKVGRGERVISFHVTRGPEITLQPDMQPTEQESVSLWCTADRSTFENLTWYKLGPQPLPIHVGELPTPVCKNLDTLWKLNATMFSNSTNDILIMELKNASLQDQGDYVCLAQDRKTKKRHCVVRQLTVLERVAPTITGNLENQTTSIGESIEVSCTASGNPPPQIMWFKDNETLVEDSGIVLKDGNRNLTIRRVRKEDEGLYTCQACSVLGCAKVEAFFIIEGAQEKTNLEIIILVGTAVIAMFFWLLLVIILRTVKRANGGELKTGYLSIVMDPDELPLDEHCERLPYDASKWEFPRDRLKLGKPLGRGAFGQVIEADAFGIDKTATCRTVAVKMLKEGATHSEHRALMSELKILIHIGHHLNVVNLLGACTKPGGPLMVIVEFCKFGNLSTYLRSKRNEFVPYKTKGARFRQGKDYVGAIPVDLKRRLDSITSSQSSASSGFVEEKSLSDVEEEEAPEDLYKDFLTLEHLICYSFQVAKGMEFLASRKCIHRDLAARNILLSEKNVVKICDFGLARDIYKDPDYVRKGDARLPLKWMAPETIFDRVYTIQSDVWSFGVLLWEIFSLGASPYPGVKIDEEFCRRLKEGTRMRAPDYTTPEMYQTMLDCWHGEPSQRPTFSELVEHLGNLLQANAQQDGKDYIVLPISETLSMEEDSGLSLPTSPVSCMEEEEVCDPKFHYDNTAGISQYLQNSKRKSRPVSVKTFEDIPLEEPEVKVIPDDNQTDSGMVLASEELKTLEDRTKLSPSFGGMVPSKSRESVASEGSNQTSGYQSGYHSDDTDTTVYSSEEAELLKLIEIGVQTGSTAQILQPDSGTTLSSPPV
Chain of Epidermal growth factor receptor (Homo sapiens) (P00533 whole entry): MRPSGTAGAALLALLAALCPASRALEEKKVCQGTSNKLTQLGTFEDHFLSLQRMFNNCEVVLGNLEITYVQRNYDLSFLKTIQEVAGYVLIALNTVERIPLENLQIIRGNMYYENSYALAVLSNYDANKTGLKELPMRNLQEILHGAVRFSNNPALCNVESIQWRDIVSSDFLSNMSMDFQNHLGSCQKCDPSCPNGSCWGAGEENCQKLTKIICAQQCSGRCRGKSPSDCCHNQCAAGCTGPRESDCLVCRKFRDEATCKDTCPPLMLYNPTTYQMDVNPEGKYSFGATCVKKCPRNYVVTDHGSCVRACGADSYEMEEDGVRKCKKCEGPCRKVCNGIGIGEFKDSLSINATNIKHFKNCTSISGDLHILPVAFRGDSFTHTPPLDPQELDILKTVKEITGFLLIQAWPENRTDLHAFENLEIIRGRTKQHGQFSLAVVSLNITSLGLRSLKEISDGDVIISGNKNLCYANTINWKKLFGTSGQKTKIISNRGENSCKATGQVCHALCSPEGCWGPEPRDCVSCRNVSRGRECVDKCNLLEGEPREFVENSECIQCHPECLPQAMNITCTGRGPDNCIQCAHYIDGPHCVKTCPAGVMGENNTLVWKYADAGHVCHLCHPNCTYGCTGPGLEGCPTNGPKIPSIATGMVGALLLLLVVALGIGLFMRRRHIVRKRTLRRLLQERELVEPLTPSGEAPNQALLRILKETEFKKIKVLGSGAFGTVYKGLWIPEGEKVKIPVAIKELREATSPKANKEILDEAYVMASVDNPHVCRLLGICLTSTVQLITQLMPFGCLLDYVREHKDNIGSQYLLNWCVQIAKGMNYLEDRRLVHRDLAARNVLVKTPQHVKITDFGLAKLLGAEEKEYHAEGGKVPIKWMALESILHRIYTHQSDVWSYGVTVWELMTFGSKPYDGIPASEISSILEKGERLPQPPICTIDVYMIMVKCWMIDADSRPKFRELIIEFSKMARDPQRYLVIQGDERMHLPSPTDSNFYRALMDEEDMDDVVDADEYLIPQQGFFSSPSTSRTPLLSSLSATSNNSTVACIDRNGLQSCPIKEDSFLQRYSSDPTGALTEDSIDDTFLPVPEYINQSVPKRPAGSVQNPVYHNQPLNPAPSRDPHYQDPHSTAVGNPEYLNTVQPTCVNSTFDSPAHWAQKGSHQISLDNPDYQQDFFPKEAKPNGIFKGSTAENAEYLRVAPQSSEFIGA

For orientation: inhibition means the drop in the measured response relative to a control, in per cent. One may read the IC50 as the concentration that gives 50% inhibition. On to `O=C(Nc1ccc(Nc2ccc([N+](=O)[O-])c3ncnc(O)c23)cc1)c1ccc(F)cc1`, for which the inhibition was determined as 69.2% in data set [1] and 102% in data set [14]. Besides, the IC50 with HUVEC turned out to be 0.5 µM; in the data set with HepG2 [2] it was 0.2 µM; in the data set on A549, 69 µM; in the data set with MDA-MB-231, 58.4 µM; in the data set with L02, 63.2 µM; in [3] it was 0.0648 µM. Moreover, in the data set with Chorioallantoic membrane, the outcome was Active. In addition, the Activity turned out to be 52.6% in the data set with HepG2 [4]; 35.9% with HepG2 [5]; 11.5% in the data set with HepG2 [6]; 41.7% in the data set on HepG2 [7]; 24.3% in the data set with HepG2 [8]; 34% in the data set on HepG2 [9]. The Activity was 34.3% in the data set with HepG2 [10]; 72.2% with HepG2 [11]; “Dose-dependent effect” in the data set on HepG2 [13]; 2.5% with HepG2 [15]; 2.1% in the data set with HepG2 [16]. Further, in data set [12], the solubility entry is on record as “Soluble”.

These data come from ChEMBL document CHEMBL4406886, “Discovery of arylamide-5-anilinoquinazoline-8-nitro derivatives as VEGFR-2 kinase inhibitors: Synthesis, in vitro biological evaluation and molecular docking” (Bioorg Med Chem Lett, 2019).
